Where two headings read alike, the source gives them in different places. Marks after values point to notes of the source that are not given here.
How the values were obtained:
GluN1/GluN2A NMDARs = GluN1/GluN2A NMDARs (Rattus norvegicus, UniProt P35439+Q00959); assay: Two-electrode voltage-clamp recordings, Xenopus laevis oocytes expressing GluN1/GluN2A; type: cell-based; settings: for IC50: glutamate/glycine 100/30 µM; for EC50: read-out: EC50 (µM) [conf. int.]; for Emax: read-out: Maximal Degree of Modulation (% of control)
GluN1/GluN2A NMDARs, sequence (Q00959 23-1464, other chains not shown): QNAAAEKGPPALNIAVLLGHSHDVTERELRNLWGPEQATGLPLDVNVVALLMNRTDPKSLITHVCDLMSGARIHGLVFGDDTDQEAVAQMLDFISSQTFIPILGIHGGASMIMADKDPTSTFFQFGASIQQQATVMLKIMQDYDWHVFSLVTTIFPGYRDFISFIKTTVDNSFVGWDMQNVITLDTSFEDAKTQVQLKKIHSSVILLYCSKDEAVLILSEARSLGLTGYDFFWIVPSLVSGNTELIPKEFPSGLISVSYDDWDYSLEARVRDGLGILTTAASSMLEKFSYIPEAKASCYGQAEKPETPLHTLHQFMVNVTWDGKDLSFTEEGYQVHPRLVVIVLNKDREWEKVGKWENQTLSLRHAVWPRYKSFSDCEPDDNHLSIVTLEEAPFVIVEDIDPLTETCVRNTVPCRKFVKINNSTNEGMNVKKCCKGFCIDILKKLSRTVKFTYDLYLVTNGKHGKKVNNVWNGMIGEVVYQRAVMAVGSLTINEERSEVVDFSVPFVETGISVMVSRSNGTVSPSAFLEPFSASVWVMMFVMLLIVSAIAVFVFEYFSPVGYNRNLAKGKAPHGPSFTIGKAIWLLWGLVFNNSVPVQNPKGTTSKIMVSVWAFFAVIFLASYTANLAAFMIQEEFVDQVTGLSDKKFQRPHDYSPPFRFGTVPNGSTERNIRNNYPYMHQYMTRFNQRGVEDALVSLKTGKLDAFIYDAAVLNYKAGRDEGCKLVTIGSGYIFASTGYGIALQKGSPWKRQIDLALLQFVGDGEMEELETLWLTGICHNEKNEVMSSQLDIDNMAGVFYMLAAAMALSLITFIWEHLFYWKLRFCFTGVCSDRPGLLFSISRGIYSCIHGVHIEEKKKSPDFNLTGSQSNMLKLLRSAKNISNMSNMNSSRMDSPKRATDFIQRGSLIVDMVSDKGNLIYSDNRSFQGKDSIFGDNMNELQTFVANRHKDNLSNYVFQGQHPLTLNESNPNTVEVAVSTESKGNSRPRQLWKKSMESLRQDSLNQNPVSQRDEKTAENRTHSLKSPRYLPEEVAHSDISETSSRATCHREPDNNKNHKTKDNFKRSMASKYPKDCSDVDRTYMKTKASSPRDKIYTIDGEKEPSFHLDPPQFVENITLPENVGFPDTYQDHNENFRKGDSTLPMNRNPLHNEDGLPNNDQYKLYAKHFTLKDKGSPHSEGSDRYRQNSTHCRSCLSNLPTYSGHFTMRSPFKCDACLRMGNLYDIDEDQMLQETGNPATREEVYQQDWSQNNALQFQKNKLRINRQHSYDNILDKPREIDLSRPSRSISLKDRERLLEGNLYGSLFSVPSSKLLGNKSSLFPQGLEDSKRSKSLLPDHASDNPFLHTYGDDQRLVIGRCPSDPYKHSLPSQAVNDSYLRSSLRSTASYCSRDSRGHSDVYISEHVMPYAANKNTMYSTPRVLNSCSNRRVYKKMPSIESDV
Procedure: (§1) cDNAs for rat wild type NMDAR subunits GluN1-1a (GenBank U11418, U08261; hereafter GluN1 or GluN1a), GluN1-1b (U08263, hereafter GluN1b), GluN2A (D13211), GluN2B (U11419), GluN2C (M91563), and GluN2D (L31611, modified as described in [Monyer et al., 1994]) were provided by Drs. S. Heinemann (Salk Institute), S. Nakanishi (Kyoto University), and P. Seeburg (University of Heidelberg). Site-directed mutagenesis was conducted using the QuikChange kit (Agilent Technologies, Santa Clara, CA) following the recommended protocol. DNA sequencing was used to verify all mutations. The amino acid numbering system started with the initiating methionine as residue number one. For expression in Xenopus laevis oocytes, cDNA constructs were linearized by restriction enzymes, and subsequently used to synthesize in vitro cRNAs following the manufacturer’s protocol (mMessage mMachine, Ambion, ThermoFisher Scientific, Waltham, MA).
(§2) Xenopus laevis stage VI oocytes (Ecocyte Biosciences, Austin, TX) were injected as previously described ([Hansen et al., 2013]) 2–7 days prior to recording with cRNA encoding the NMDAR subunits and stored at 15°C in media containing (in mM) 88 NaCl, 2.4 NaHCO3, 1 KCl, 0.33 Ca(NO3)2, 0.41 CaCl2, 0.82 MgSO4, 5 Tris-HCl; pH was adjusted to 7.4 with NaOH and the solution supplemented with 1 U/mL penicillin, 0.1 mg/mL gentamicin sulfate, and 1 μg/mL streptomycin. Two-electrode voltage-clamp recordings were performed at room temperature (21–23°C) using different internal solutions for voltage and current electrodes (0.3 M and 3.0 M KCl, respectively). All extracellular solutions were made from a solution containing (in mM) 90 NaCl, 1 KCl, 10 HEPES, 0.5 BaCl2, 0.01 EDTA (pH 7.4 with NaOH). Experiments were performed using an eight port Modular Valve Positioner (Hamilton Company, Reno, NV) and controlled by custom software (Easy Oocyte, Emory University, Atlanta, GA)to exchange solutions. Oocyte currents were recorded at a holding potential of −40 mV using a two-electrode voltage-clamp amplifier (OC-725B or OC-725C, Warner Instruments, Hamden, CT). […] In MTSEA experiments, fresh MTSEA solutions (0.2 mM) were prepared and utilized in less than 30 min to limit compound degradation.
(§3) Measurements are given as mean ± SEM unless otherwise indicated. The number of replicate experiments used was chosen to ensure a power level of at least 0.80 when α = 0.05 and when detecting appropriate effect sizes. EC50 and IC50 values and confidence intervals reported were calculated by averaging the log(EC50) or log(IC50) value, determining confidence intervals for mean log(EC50) or log(IC50), and converting back to units of molarity. Statistical significance evaluations (α set to 0.05) were performed using a one-way ANOVA with Dunnett’s multiple comparison test, a paired t–test, or other appropriate tests as described.

GluN1/GluN2B NMDARs = GluN1/GluN2B NMDARs (Rattus norvegicus, UniProt P35439+Q00960); assay: Two-electrode voltage-clamp recordings, Xenopus laevis oocytes expressing GluN1/GluN2B; type: cell-based; settings: for Emax: read-out: Maximal Degree of Modulation (% of control)
GluN1/GluN2B NMDARs, sequence (Q00960 27-1482, other chains not shown): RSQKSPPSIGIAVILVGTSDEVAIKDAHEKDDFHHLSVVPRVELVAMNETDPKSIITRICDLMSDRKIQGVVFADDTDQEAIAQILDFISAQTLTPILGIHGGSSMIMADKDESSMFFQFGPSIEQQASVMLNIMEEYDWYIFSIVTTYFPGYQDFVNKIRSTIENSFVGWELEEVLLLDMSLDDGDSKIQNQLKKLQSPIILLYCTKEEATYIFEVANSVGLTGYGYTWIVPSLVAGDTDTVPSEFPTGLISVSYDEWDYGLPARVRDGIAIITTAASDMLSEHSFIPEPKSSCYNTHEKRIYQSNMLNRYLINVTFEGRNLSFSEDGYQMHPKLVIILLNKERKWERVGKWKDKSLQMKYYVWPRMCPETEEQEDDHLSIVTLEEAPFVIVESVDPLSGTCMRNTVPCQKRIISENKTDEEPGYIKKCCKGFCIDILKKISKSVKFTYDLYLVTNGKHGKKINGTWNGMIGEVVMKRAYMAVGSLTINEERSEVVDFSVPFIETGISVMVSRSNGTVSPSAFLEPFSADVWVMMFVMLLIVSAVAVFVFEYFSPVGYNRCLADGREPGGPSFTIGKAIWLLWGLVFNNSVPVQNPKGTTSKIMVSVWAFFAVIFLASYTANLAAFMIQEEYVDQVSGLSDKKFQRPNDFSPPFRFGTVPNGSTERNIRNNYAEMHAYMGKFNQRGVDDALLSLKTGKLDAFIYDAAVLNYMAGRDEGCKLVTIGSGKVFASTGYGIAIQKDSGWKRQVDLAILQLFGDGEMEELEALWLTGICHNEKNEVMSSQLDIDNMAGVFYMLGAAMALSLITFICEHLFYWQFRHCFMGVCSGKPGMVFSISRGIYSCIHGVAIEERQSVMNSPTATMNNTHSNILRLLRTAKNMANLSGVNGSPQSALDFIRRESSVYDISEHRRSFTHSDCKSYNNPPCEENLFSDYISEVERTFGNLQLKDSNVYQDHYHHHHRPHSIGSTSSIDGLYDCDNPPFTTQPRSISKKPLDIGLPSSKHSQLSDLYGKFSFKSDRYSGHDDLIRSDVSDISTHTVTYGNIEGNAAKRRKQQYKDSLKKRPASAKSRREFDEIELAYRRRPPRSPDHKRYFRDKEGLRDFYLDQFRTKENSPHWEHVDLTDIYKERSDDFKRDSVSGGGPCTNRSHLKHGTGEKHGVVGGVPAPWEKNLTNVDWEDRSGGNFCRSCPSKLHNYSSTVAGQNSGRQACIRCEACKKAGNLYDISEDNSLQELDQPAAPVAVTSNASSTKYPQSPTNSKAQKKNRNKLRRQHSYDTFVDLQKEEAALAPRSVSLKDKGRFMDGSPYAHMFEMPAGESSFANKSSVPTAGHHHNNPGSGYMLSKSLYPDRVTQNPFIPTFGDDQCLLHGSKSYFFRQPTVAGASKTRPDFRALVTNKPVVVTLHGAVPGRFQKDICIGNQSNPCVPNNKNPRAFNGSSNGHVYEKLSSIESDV
Procedure: as §1, §2, §3

[1] = no second modulator (+EU1794-27 0 µM), read-out: IC50 (µM) [conf. int.]
[2] = saturating glutamate/glycine 100/30 µM, mean [95% CI], - = not fit, response at 30 µM differed by no more than 15% from control
[3] = saturating glutamate/glycine 100/30 µM, mean ± SEM
[4] = sub-saturating glutamate/glycine 0.6/0.2 µM
[5] = read-out: IC50 (µM) [conf. int.]
[6] = saturating glutamate/glycine 100/30 µM, mean [95% CI], - = not fit, response at 30 µM differed by no more than 15% from control, read-out: EC50 (µM) [conf. int.]
[7] = sub-saturating glutamate/glycine 1/0.3 µM
[8] = sub-saturating glutamate/glycine 1/0.3 µM, read-out: EC50 (µM) [conf. int.]
[9] = sub-saturating glutamate/glycine 2/0.6 µM

## CCOC(=O)c1c(NC(=O)CC2SC(=N)NC2=O)sc2c1CCC(C)C2 (stereo not shown) [EU1794-2, ethyl 2-(2-(2-imino-4-oxothiazolidin-5-yl)acetamido)-6-methyl-4,5,6,7-tetrahydrobenzo[b]thiophene-3-carboxylate]
GluN1/GluN2A NMDARs; +EU1794-27 3 µM, read-out: EU1794-2 IC50 (µM) [conf. int.]
  IC50: 2.5 µM
GluN1/GluN2A NMDARs; +EU1794-27 10 µM, read-out: EU1794-2 IC50 (µM) [conf. int.]
  IC50: 3.6 µM
GluN1/GluN2A NMDARs; +EU1794-27 20 µM, read-out: EU1794-2 IC50 (µM) [conf. int.]
  IC50: 8 µM
GluN1/GluN2A NMDARs; [1]
  IC50: 0.6 µM
GluN1/GluN2A NMDARs; [2]
  EC50: 0.6 µM
GluN1/GluN2A NMDARs; [3]
  Emax: 6%
GluN1/GluN2A NMDARs; [4]
  EC50: 1.8 µM
  Emax: 37%
GluN1/GluN2B NMDARs; +EU1794-27 10 µM, glutamate/glycine 100/30 µM, read-out: EU1794-2 IC50 (µM) [conf. int.]
  IC50: 3.5 µM
GluN1/GluN2B NMDARs; +EU1794-27 20 µM, glutamate/glycine 100/30 µM, read-out: EU1794-2 IC50 (µM) [conf. int.]
  IC50: 12 µM
GluN1/GluN2B NMDARs; [5]
  IC50: 1.2 µM
GluN1/GluN2B NMDARs; [6]
  EC50: 1.2 µM
GluN1/GluN2B NMDARs; [3]
  Emax: 10%
GluN1/GluN2B NMDARs; sub-saturating glutamate/glycine 0.6/0.2 µM, read-out: EC50 (µM) [conf. int.]
  EC50: 1.4 µM
GluN1/GluN2B NMDARs; [4]
  Emax: 28%

## CCOC(=O)c1c(NC(=O)CC2SC(=N)NC2=O)sc2c1CCCC2 (stereo not shown) [EU1794-4, ethyl 2-(2-(2-imino-4-oxothiazolidin-5-yl)acetamido)-4,5,6,7-tetrahydrobenzo[b]thiophene-3-carboxylate]
GluN1/GluN2A NMDARs; control vs 10 µM EU1794-4
  Fold Difference (glutamate EC50): 2.4^†
  Fold Difference (glycine EC50): 2.8^†
GluN1/GluN2A NMDARs; [1]
  IC50: 2.2 µM
GluN1/GluN2A NMDARs; [2]
  EC50: 2.2 µM
GluN1/GluN2A NMDARs; [3]
  Emax: 32%
GluN1/GluN2A NMDARs; [7]
  EC50: 3.9 µM
  Emax: 500%
GluN1/GluN2B NMDARs; control vs 10 µM EU1794-4
  Fold Difference (glutamate EC50): 2.0^†
  Fold Difference (glycine EC50): 3.3^†
GluN1/GluN2B NMDARs; [5]
  IC50: 2.6 µM
GluN1/GluN2B NMDARs; [6]
  EC50: 2.6 µM
GluN1/GluN2B NMDARs; [3]
  Emax: 67%
GluN1/GluN2B NMDARs; [8]
  EC50: 4.3 µM
GluN1/GluN2B NMDARs; [7]
  Emax: 210%

## CC(C)(C)OC(=O)c1c(NC(=O)CC2SC(=N)NC2=O)sc2c1CCCC2 (stereo not shown) [EU1794-27, tert-butyl 2-(2-(2-imino-4-oxothiazolidin-5-yl)acetamido)-4,5,6,7-tetrahydrobenzo[b]thiophene-3-carboxylate]
GluN1/GluN2A NMDARs; control vs 10 µM EU1794-27
  Fold Difference (glutamate EC50): 2.3^†
  Fold Difference (glycine EC50): 1.6
GluN1/GluN2A NMDARs; [2]
  EC50: 7.4 µM
GluN1/GluN2A NMDARs; [3]
  Emax: 52%
GluN1/GluN2A NMDARs; [9]
  EC50: 8.1 µM
  Emax: 340%
GluN1/GluN2B NMDARs; +EU1794-2 1 µM, glutamate/glycine 100/30 µM, read-out: EU1794-27 EC50 (µM) [conf. int.]
  EC50: 6 µM
GluN1/GluN2B NMDARs; +EU1794-2 3 µM, glutamate/glycine 100/30 µM, read-out: EU1794-27 EC50 (µM) [conf. int.]
  EC50: 8.4 µM
GluN1/GluN2B NMDARs; control vs 10 µM EU1794-27
  Fold Difference (glutamate EC50): 2.0^†
  Fold Difference (glycine EC50): 2.9^†
GluN1/GluN2B NMDARs; [6]
  EC50: 1.4 µM
GluN1/GluN2B NMDARs; [3]
  Emax: 130%
GluN1/GluN2B NMDARs; [8]
  EC50: 6.3 µM
GluN1/GluN2B NMDARs; [7]
  Emax: 400%

From paper PMC5967867, “An NMDAR positive and negative allosteric modulator series share a binding site and are interconverted by methyl groups” (eLife, 2018)
